Laboratory results as given in patent US8178506B2, “Oligomeric compounds and compositions for use in modulation of small non-coding RNAs” (Regulus Therapeutics Inc., priority 2003, dated 2012).
In the oligonucleotide strings, read from the 5' end, every base follows the letter of its sugar. An asterisk marks phosphorothioate; unmarked linkages are phosphodiester. Other units and linkages are bracketed, terminal groups are in braces. A string of capitals states the bases alone. e = 2'-O-(2-methoxyethyl) (MOE); [5mC] = 5-methylcytosine; d = 2'-deoxy (DNA)

Columns and labels:
Assay type in all cases: cell-based, human
[1] = tested on: adipocytes; test: Triglyceride accumulation assay in adipocytes
[2] = tested on: HSL; test: HSL mRNA expression in adipocytes (real-time PCR)
[3] = tested on: Glut4; test: Glut4 mRNA expression in adipocytes (real-time PCR)
[4] = tested on: aP2; test: aP2 mRNA expression in adipocytes (real-time PCR); details: for aP2 mRNA: Table 75
[5] = tested on: PPARγ; test: PPARγ mRNA expression in adipocytes (real-time PCR)
[6] = differentiating adipocytes transfected with oligomeric compound, Table 75
[7] = differentiating adipocytes transfected with oligomeric compound
[8] = Table 17, differentiating adipocytes, control = treatment with ISIS 342673
[9] = Table 18, differentiating adipocytes, control = treatment with ISIS 342673

Question: What does the source list for “344612 (ACGGAAGGGCAGAGAGGGCCAG; anti-miR; all 2'-MOE, all phosphorothioate, methylation of C not given here) [compound 344612]”?
Answer: TG (triglyceride accumulation) [1, 6]: 69 percentage of untreated control (UTC); HSL mRNA [2, 6]: 59 percentage of untreated control (UTC); GLUT4 mRNA [3, 6]: 40 percentage of untreated control (UTC); aP2 mRNA [4, 7]: 72 percentage of untreated control (UTC); PPAR gamma mRNA [5, 6]: 62 percentage of untreated control (UTC)

Question: How did the “TG (triglyceride accumulation)” value [1, 6] turn out when “344277 (antisense AAUACAUACUUCUUUACAUUCCA; all 2'-MOE, all phosphorothioate, methylation of C and T or U not given here) [compound 344277]” was run?
Answer: 75 percentage of untreated control (UTC)

Question: What about the “HSL mRNA” value [2, 6] of the same substance?
Answer: 57 percentage of untreated control (UTC)

Question: And the “GLUT4 mRNA” value [3, 6]?
Answer: 45 percentage of untreated control (UTC)

Question: What about the “aP2 mRNA” value [4, 7] of the same substance?
Answer: 61 percentage of untreated control (UTC)

Question: What about the “PPAR gamma mRNA” value [5, 6] of the same substance?
Answer: 68 percentage of untreated control (UTC)

Question: Which results are given for “328118 (antisense eT*eA*eT*eT*eA*eT*e[5mC]*eA*eG*e[5mC]*eA*eT*e[5mC]*eT*eG*e[5mC]*eT*eT*eG*e[5mC]*eA) [compound 328118]”?
Answer: TG (triglyceride accumulation) [1, 8]: 69.3 percentage of control; TG (triglyceride accumulation) [1, 6]: 69 percentage of untreated control (UTC); HSL mRNA [2, 8]: 85.3 percentage of control; HSL mRNA [2, 6]: 67 percentage of untreated control (UTC); GLUT4 mRNA [3, 8]: 76.6 percentage of control; GLUT4 mRNA [3, 6]: 57 percentage of untreated control (UTC); AP2 mRNA [4, 8]: 92.7 percentage of control; aP2 mRNA [4, 7]: 74 percentage of untreated control (UTC); PPAR gamma mRNA [5, 8]: 80.2 percentage of control; PPAR gamma mRNA [5, 6]: 72 percentage of untreated control (UTC)

Question: What does the source list for “328340 (eT*eA*eA*eT*eA*dT*dA*dT*dA*dT*dT*dT*d[5mC]*dA*d[5mC]*eT*eA*e[5mC]*eG*e[5mC]) [compound 328340]”?
Answer: TG (triglyceride accumulation) [1, 7]: 76 percentage of untreated control (UTC); HSL mRNA [2, 7]: 130 percentage of untreated control (UTC); GLUT4 mRNA [3, 7]: 112 percentage of untreated control (UTC); AP2 mRNA [4, 7]: 85 percentage of untreated control (UTC); PPAR gamma mRNA [5, 7]: 110 percentage of untreated control (UTC)

Question: With “328124 (antisense eA*eG*e[5mC]*eA*eG*eG*eT*eG*eA*eA*eG*eG*e[5mC]*eA*e[5mC]*e[5mC]*eT*eG*eG*e[5mC]*eT) [compound 328124]” as the substance, how does the “TG (triglyceride accumulation)” value [1, 8] read?
Answer: 99.1 percentage of control

Question: What about the “TG (triglyceride accumulation)” value [1, 6] of the same substance?
Answer: 108 percentage of untreated control (UTC)

Question: What about the “HSL mRNA” value [2, 8] of the same substance?
Answer: 103.6 percentage of control

Question: And the “HSL mRNA” value [2, 6]?
Answer: 96 percentage of untreated control (UTC)

Question: And the “GLUT4 mRNA” value [3, 8]?
Answer: 122.7 percentage of control

Question: And the “GLUT4 mRNA” value [3, 6]?
Answer: 105 percentage of untreated control (UTC)

Question: And the “AP2 mRNA” value [4, 8]?
Answer: 101.8 percentage of control

Question: And the “aP2 mRNA” value [4, 7]?
Answer: 118 percentage of untreated control (UTC)

Question: And the “PPAR gamma mRNA” value [5, 8]?
Answer: 90.4 percentage of control

Question: What about the “PPAR gamma mRNA” value [5, 6] of the same substance?
Answer: 92 percentage of untreated control (UTC)

Question: Which results are given for “341799 (antisense ACCUAAUAUAUCAAACAUAUCA; all 2'-MOE, all phosphorothioate, methylation of C and T or U not given here) [compound 341799]”?
Answer: TG (triglyceride accumulation) [1, 6]: 98 percentage of untreated control (UTC); HSL mRNA [2, 6]: 103 percentage of untreated control (UTC); GLUT4 mRNA [3, 6]: 89 percentage of untreated control (UTC); aP2 mRNA [4, 7]: 101 percentage of untreated control (UTC); PPAR gamma mRNA [5, 6]: 89 percentage of untreated control (UTC)

Question: What does the source list for “341798 (antisense GCAUUAUUACUCACGGUACGA; all 2'-MOE, all phosphorothioate, methylation of C and T or U not given here) [compound 341798]”?
Answer: TG (triglyceride accumulation) [1, 6]: 62 percentage of untreated control (UTC); HSL mRNA [2, 6]: 77 percentage of untreated control (UTC); GLUT4 mRNA [3, 6]: 55 percentage of untreated control (UTC); aP2 mRNA [4, 7]: 84 percentage of untreated control (UTC); PPAR gamma mRNA [5, 6]: 70 percentage of untreated control (UTC)

Question: With “340356 (antisense CUCAAUAGACUGUGAGCUCCUU; all 2'-MOE, all phosphorothioate, methylation of C and T or U not given here) [compound 340356]” as the substance, how does the “TG (triglyceride accumulation)” value [1, 6] read?
Answer: 43 percentage of untreated control (UTC)

Question: What about the “HSL mRNA” value [2, 6] of the same substance?
Answer: 59 percentage of untreated control (UTC)

Question: And the “GLUT4 mRNA” value [3, 6]?
Answer: 54 percentage of untreated control (UTC)

Question: And the “aP2 mRNA” value [4, 7]?
Answer: 73 percentage of untreated control (UTC)

Question: What about the “PPAR gamma mRNA” value [5, 6] of the same substance?
Answer: 62 percentage of untreated control (UTC)

Question: Which “TG (triglyceride accumulation)” value [1, 6] does the source give for “344338 (antisense AUGCCCUUUUAACAUUGCACUG; all 2'-MOE, all phosphorothioate, methylation of C and T or U not given here) [compound 344338]” here?
Answer: 103 percentage of untreated control (UTC)

Question: And the “HSL mRNA” value [2, 6]?
Answer: 89 percentage of untreated control (UTC)

Question: And the “GLUT4 mRNA” value [3, 6]?
Answer: 66 percentage of untreated control (UTC)

Question: And the “aP2 mRNA” value [4, 7]?
Answer: 86 percentage of untreated control (UTC)

Question: And the “PPAR gamma mRNA” value [5, 6]?
Answer: 91 percentage of untreated control (UTC)

Question: With “328112 (antisense eA*eT*e[5mC]*eA*eT*eT*eA*e[5mC]*eT*eG*eG*eA*eT*eT*eG*e[5mC]*eT*eG*eT*eA*eA) [compound 328112]” as the substance, how does the “TG (triglyceride accumulation)” value [1, 9] read?
Answer: 98.1 percentage of control

Question: And the “TG (triglyceride accumulation)” value [1, 7]?
Answer: 92 percentage of untreated control (UTC)

Question: And the “HSL mRNA” value [2, 9]?
Answer: 101.2 percentage of control

Question: And the “HSL mRNA” value [2, 7]?
Answer: 89 percentage of untreated control (UTC)

Question: What about the “GLUT4 mRNA” value [3, 9] of the same substance?
Answer: 122.5 percentage of control

Question: And the “GLUT4 mRNA” value [3, 7]?
Answer: 97 percentage of untreated control (UTC)

Question: And the “AP2 mRNA” value [4, 9]?
Answer: 99.1 percentage of control

Question: What about the “AP2 mRNA” value [4, 7] of the same substance?
Answer: 73 percentage of untreated control (UTC)

Question: What about the “PPAR gamma mRNA” value [5, 9] of the same substance?
Answer: 102.4 percentage of control

Question: What about the “PPAR gamma mRNA” value [5, 7] of the same substance?
Answer: 79 percentage of untreated control (UTC)

Question: With “344617 (GACGGGUGCGAUUUCUGUGUGAGA; all 2'-MOE, all phosphorothioate, methylation of C and T or U not given here) [compound 344617]” as the substance, how does the “TG (triglyceride accumulation)” value [1, 6] read?
Answer: 52 percentage of untreated control (UTC)

Question: And the “HSL mRNA” value [2, 6]?
Answer: 55 percentage of untreated control (UTC)

Question: And the “GLUT4 mRNA” value [3, 6]?
Answer: 42 percentage of untreated control (UTC)

Question: And the “aP2 mRNA” value [4, 7]?
Answer: 59 percentage of untreated control (UTC)

Question: What about the “PPAR gamma mRNA” value [5, 6] of the same substance?
Answer: 72 percentage of untreated control (UTC)
